IC50 data for two molecules are collected here from patent US8158587B2, “Compound having histone deacetylase-inhibiting activity, and pharmaceutical composition comprising the compound as an active ingredient” (Kyushu Institute of Technology, priority 2006, dated 2012).

Test [1] concerns the target T1, human HDAC1 (Homo sapiens, UniProt Q13547).
T1 construct: made in house; host or cells: 293T cells (transient transfection, anti-FLAG immunoprecipitation, FLAG peptide elution)
The test can be described thus: HDAC-inhibiting activity, coumarin-labeled acetylated histone peptide assay. As to conditions: human HDAC1 from transfected 293T cells; 37° C., 30 minutes. In kind it is biochemical. On the procedure: (§1) In carrying out HDAC-inhibiting activity measurements, HDAC solutions were prepared in the following manner. In each 100-mm dish, there were sowed 1×10^7 293T cells and, after 24 hours, they were transfected with a vector (5 μg) expressing human HDAC1 or HDAC4 or murine HDAC6 using the LipofectAmine 2000 reagent (Invitrogen). The human HDAC1 expression vector used was pcDNA3-HD1 (Yang, W. M., Yao, Y. L., Sun, J. M., Davie, J. R. & Seto, E. (1997) J. Biol. Chem. 272, 28001-28007), the human HDAC4 expression vector used was pcDNA3-HD4 (Fischle, W., Emiliani, S., Hendzel, M. J., Nagase, T., Nomura, N., Voelter, W. & Verdin, E. (1999) J. Biol. Chem. 274, 11713-11720), and the murine HDAC6 expression vector used was pcDNA3-mHDA2/HDAC6 (Verdel, A. & Khochbin, S. (1999) J. Biol. Chem. 274, 2440-2445).
(§2) After 24 hours of incubation, cells were recovered, washed with PBS, suspended in lysis buffer (50 mM Tris-HCl (pH 7.5), 120 mM NaCl, 5 mM EDTA, 0.5% Nonidet P-40), and sonicated. The supernatant was collected by centrifugation and then deprived of nonspecific proteins using Protein A/G plus agarose beads (Santa Cruz Biotechnologies, Inc.). Thereafter, anti-FLAG M2 antibody (Sigma-Aldrich Inc.) was added, and the reaction was allowed to proceed at 4° C. for 2 hours.
(§3) To this were added agarose beads, the reaction was allowed to proceed at 4° C. for 3 hours, and the agarose beads were washed three times with lysis buffer and then once with HD buffer (20 mM Tris-HCl (pH 8.0), 150 mM NaCl, 10% glycerol). The protein bound to the agarose beads was recovered by 1 hour of incubation with FLAG peptide (40 μg) (Sigma-Aldrich Inc.) in HD buffer (200 μl) at 4° C., and the liquid recovered was used, as a reactant solution, in the HDAC-inhibiting activity measurement described below.
(§4) HDAC-inhibiting activity evaluation in each in vitro system was made as follows. Each test compound was dissolved in DMSO, a stock solution with a concentration of 10 mM was thus prepared and this was used as an inhibitor stock solution. The assay was carried out by incubating the HDAC solution and a coumarin-labeled acetylated histone peptide solution in the presence of the test compound at 37° C. for 30 minutes (reaction volume 20 μl). To the reaction mixture was added 30 μl of trypsin, and the aminomethylcoumarin released by the enzymatic reaction was assayed using a fluorescent plate reader. In a negative control assay, no inhibitor was added to the reaction system and the same procedure was carried out.

The target of test [2] is T2, murine HDAC6 (Mus musculus, UniProt Q9Z2V5).
T2 construct: made in house; host or cells: 293T cells (transient transfection, anti-FLAG immunoprecipitation, FLAG peptide elution)
T2 sequence (Q9Z2V5 1-1149): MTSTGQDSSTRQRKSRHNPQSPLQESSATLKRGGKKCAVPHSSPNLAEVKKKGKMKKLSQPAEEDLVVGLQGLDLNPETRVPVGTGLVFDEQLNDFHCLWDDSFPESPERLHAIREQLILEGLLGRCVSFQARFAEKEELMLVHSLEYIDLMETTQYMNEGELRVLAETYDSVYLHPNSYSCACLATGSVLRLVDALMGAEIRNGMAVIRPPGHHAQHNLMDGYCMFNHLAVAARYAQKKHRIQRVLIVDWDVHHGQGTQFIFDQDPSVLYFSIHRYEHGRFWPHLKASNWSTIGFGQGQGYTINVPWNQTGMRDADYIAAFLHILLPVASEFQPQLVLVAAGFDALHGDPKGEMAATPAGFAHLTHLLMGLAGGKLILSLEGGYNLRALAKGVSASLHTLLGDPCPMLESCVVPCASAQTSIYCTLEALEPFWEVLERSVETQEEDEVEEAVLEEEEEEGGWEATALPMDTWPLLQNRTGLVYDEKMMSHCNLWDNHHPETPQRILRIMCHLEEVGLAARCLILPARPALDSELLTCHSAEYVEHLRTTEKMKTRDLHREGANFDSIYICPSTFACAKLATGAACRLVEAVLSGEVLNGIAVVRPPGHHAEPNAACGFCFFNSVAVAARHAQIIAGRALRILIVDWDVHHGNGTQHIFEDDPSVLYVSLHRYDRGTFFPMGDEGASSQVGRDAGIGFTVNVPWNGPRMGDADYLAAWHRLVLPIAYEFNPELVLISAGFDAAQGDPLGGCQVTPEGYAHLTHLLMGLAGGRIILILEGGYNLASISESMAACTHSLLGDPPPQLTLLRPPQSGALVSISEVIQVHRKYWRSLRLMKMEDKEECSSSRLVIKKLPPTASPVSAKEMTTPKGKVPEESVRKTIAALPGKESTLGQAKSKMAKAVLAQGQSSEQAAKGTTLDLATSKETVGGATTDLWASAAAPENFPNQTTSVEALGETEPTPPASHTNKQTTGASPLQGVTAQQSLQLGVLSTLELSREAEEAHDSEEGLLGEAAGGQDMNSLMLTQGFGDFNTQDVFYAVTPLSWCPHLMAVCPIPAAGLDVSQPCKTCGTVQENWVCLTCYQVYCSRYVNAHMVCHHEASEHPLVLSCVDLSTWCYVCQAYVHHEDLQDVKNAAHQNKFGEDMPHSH
The test is described as above. In kind it is biochemical. As to conditions: murine HDAC6 from transfected 293T cells; 37° C., 30 minutes. The protocol: as §1, §2, §3, §4

Test [3] has as its system brain tumor cell line SF-268. Put plainly: Human cancer cell line panel, proliferation (sulforhodamine B). In kind it is cell-based. As to conditions: SF-268, 2 days of cultivation; read-out: 50% inhibitory concentration, proliferation.

T1 sequence (Q13547 whole entry): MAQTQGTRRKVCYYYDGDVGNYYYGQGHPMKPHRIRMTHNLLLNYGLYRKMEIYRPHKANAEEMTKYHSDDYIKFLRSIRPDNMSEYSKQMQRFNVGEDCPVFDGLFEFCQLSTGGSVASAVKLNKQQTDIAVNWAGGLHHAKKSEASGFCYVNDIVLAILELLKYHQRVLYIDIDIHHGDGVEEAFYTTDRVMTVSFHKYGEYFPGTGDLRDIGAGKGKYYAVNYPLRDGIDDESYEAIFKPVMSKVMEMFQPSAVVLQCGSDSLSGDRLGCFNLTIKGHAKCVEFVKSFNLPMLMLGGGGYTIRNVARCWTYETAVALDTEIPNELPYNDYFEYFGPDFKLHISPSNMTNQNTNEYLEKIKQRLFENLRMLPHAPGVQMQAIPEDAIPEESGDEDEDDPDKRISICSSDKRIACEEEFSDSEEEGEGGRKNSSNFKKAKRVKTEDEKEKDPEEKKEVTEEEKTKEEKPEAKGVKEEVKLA

Turning to `CC1(C)NC(=O)[C@H](CCCCCSCc2ccncc2)NC(=O)[C@H]2CCCN2C(=O)[C@H](Cc2ccccc2)NC1=O` [Ky-26, cyclo(-L-Am7(4-pyridylmethyl)-Aib-L-Phe-D-Pro-)], the IC50 turned out to be 50 nM in test [1] and 1400 nM in test [2]. For the molecule `CC(=O)CSCCCCC[C@@H]1NC(=O)[C@H]2CCCN2C(=O)[C@H](Cc2ccccc2)NC(=O)C(C)(C)NC1=O` [Ky-72, cyclo(-L-Am7(acetonyl)-Aib-L-Phe-D-Pro-)], the IC50 in test [3] is at most 100 nM.
